Experimental data published in patent publication US5328902A, “7-(substituted)-9-[(substituted glycyl)amido]-6-demethyl-6-deoxytetracyclines” (American Cyanamid Co., priority 1992, dated 1994).
Where a name gives a salt, the structure may show the parent alone.

How the values were obtained:
Assay type in all cases: cell-based
E. coli UBMS 88-1 Tet B = assay: microbe, parasite or virus in culture; details: E. coli UBMS 88-1 Tet B; 18 hours at 35° C.
[1] = test system: E. coli MC 4100 Tet sens.; assay: MIC, agar dilution
E. coli PRP1 Tet A = assay: microbe, parasite or virus in culture; details: E. coli PRP1 Tet A
E. coli J3272 Tet C = assay: microbe, parasite or virus in culture; details: E. coli J3272 Tet C
E. coli UBMS 89-1 Tet M = assay: microbe, parasite or virus in culture; details: E. coli UBMS 89-1 Tet M
[2] = test system: E. coli UBMS 89-2 Tet sens.; assay: MIC, agar dilution; details: E. coli UBMS 89-2 Tet sens.
E. coli J2175 = assay: MIC, agar dilution; details: E. coli J2175
E. coli BAJ9003 IMP MUT = assay: microbe, parasite or virus in culture; details: E. coli BAJ9003 IMP MUT
E. coli UBMS 90-4 Tet M = assay: microbe, parasite or virus in culture; details: E. coli UBMS 90-4 Tet M
E. coli UBMS 90-5 = assay: MIC, agar dilution
E. coli #311 (MP) = assay: MIC, agar dilution; details: E. coli #311 (MP)
E. coli ATCC 25922 = assay: MIC, agar dilution; details: E. coli ATCC 25922
E. coli J3272 Tet D = assay: microbe, parasite or virus in culture; details: E. coli J3272 Tet D
S. mariescens FPOR 8733 = assay: MIC, agar dilution
[3] = test system: Ps. acruginosa ATCC 27853; assay: MIC, agar dilution; details: Ps. acruginosa ATCC 27853
S. aureus NEMC 8769 = assay: MIC, agar dilution; details: S. aureus NEMC 8769
S. aureus UBMS 88-4 = assay: MIC, agar dilution; details: S. aureus UBMS 88-4
[4] = test system: S. aureus UBMS 88-5 Tet M; assay: microbe, parasite or virus in culture; details: S. aureus UBMS 88-5 Tet M
[5] = test system: S. aureus UBMS 88-7 Tet K; assay: microbe, parasite or virus in culture; details: S. aureus UBMS 88-7 Tet K
[6] = test system: S. aureus UBMS 90-1 Tet M; assay: microbe, parasite or virus in culture; details: S. aureus UBMS 90-1 Tet M
[7] = test system: S. aureus UBMS 90-2 Tet M; assay: microbe, parasite or virus in culture; details: S. aureus UBMS 90-2 Tet M
S. aureus IVES 2943 = assay: MIC, agar dilution; details: S. aureus IVES 2943
S. aureus ROSE (MP) = assay: MIC, agar dilution; details: S. aureus ROSE (MP)
S. aureus IVES 1 983 = assay: MIC, agar dilution; details: S. aureus IVES 1 983
S. aureus ATCC 29213 = assay: MIC, agar dilution; details: S. aureus ATCC 29213
[8] = test system: S. hemolyticus AVHAH 88-3; assay: MIC, agar dilution; details: S. hemolyticus AVHAH 88-3
Enterococcus 12201 = assay: MIC, agar dilution; details: Enterococcus 12201
S. aureus UBMS 90-3 = assay: MIC, agar dilution; details: S. aureus UBMS 90-3
E. faecalis ATCC 29212 = assay: MIC, agar dilution; details: E. faecalis ATCC 29212
S. aureus SMITH (MP) = assay: MIC, agar dilution; details: S. aureus SMITH (MP)

Measured: MIC

CCCCCCCNCC(=O)Nc1cc(N(C)C)c2c(c1O)C(=O)C1=C(O)[C@]3(O)C(=O)C(C(N)=O)=C(O)[C@@H](N(C)C)C3CC1C2 (stereo partly drawn) [J, [4S-(4alpha,12aalpha)]-4,7-Bis(dimethylamino)-9-[[(heptylamino)acetyl]amino]-l,4,4a,5,5a,6,11,12a-octahydro-3,10,12,12a-tetrahydroxy-1,11-dioxo-2-naphthacenecarboxamide dihydrochloride]
16 µg/mL: S. mariescens FPOR 8733
> 32 µg/mL: [3]
0.25 µg/mL: E. coli BAJ9003 IMP MUT
no: S. aureus NEMC 8769
1 µg/mL: [1] | [5] | [6] | S. aureus IVES 1 983
0.5 µg/mL: E. coli UBMS 89-1 Tet M | S. aureus UBMS 88-4 | [4] | [7] | S. aureus IVES 2943 | S. aureus ATCC 29213 | Enterococcus 12201
not listed: S. aureus UBMS 90-3 | E. faecalis ATCC 29212 | S. aureus SMITH (MP)
2 µg/mL: all other assays above

CN(C)c1cc(NC(=O)CNCC(F)(F)F)c(O)c2c1CC1CC3C(N(C)C)C(O)=C(C(N)=O)C(=O)C3(O)C(O)=C1C2=O (stereo not drawn) [S, [4S-(4alpha,12aalpha)]-4,7-Bis(dimethylamino)-1,4,4a,5,5a,6,11,12a-octahydro-3,10, 12,12a-tetrahydroxy-1,11-dioxo-9-[[[2,2,2-trifluoroethyl)amino]acetyl]amino-2-naphthacenecarboxamide]
16 µg/mL: [1] | [6] | [8]
2 µg/mL: E. faecalis ATCC 29212
> 32 µg/mL: [2] | E. coli J2175 | E. coli UBMS 90-5 | E. coli #311 (MP) | E. coli ATCC 25922 | S. mariescens FPOR 8733 | [3] | S. aureus IVES 2943 | S. aureus IVES 1 983
8 µg/mL: [4]
32 µg/mL: E. coli UBMS 88-1 Tet B | E. coli UBMS 89-1 Tet M | [5]
4 µg/mL: S. aureus NEMC 8769 | S. aureus UBMS 88-4 | S. aureus UBMS 90-3 | [7] | S. aureus ATCC 29213 | Enterococcus 12201

[4S-(4alpha,12aalpha)]-4,7-Bis(dimethylamino)-1,4,4a,5,5a,6,11,12a-octahydro-3,10, 12,12a-tetrahydroxy-1,11-dioxo-9-[[(undecylamino)acetyl]amino]-2-naphthacenecarboxamide dihydrochloride
4 µg/mL: [7] | Enterococcus 12201
8 µg/mL: E. coli #311 (MP)
2 µg/mL: [1] | [5] | E. faecalis ATCC 29212
16 µg/mL: E. coli UBMS 89-1 Tet M | [4] | [6] | S. aureus ROSE (MP)
32 µg/mL: E. coli UBMS 88-1 Tet B | E. coli PRP1 Tet A | E. coli UBMS 90-4 Tet M | E. coli J3272 Tet D
0.5 µg/mL: S. aureus NEMC 8769 | S. aureus UBMS 88-4 | S. aureus UBMS 90-3 | S. aureus SMITH (MP)
> 32 µg/mL: S. mariescens FPOR 8733 | [3]
1 µg/mL: E. coli BAJ9003 IMP MUT | S. aureus ATCC 29213
